Experimental data taken from US20220389373A1, “METHODS AND SYSTEMS FOR GENERATING THREE-DIMENSIONAL BIOLOGICAL STRUCTURES” (Fluicell AB, priority 2019, published 2022).

Tested on: HaCaT cells
Assay: Retinoic acid treatment of bioprinted psoriasis-like skin model, CK10 immunofluorescence
Assay type: cell-based, human
Settings: printed stripes of differentiated (cytokine-treated) and non-differentiated HaCaT cells; RA 1 μM in growth media for 20 hrs; versus solvent control

**Q.** For `CC1=C(/C=C/C(C)=C/C=C/C(C)=C/C(=O)O)C(C)(C)CCC1` [retinoic acid, all-trans retinoic acid], which “decrease in CK10 expression for the treated samples” value is on record?
**A.** approximately 20%
